EC50 data for 22 compounds are collected here from patent publication US8598193B2, “Polycyclic agents for the treatment of respiratory syncytial virus infections” (Biota Scientific Management Pty Ltd., priority 2003, dated 2013).

≈ marks a conversion by molar mass, not a printed value.

The subject of the first assay is RSV A2. Kind of assay: RSV antiviral cytopathic effect (CPE) assay, MTT readout. Particulars: human respiratory syncytial virus, HEp-2, 120 h; RSV A2 in HEp2 cells, CPE assay, MTT, approx. 5 days; read-out: Activity Range (RSV A2 antiviral EC50), compounds of Table 2. It counts as cell-based. The method, then: Method Q: RSV Antiviral Assay Protocol
Compounds of the invention were tested for their antiviral activity against respiratory syncytial virus. Cytopathic effect (CPE) assays were performed essentially as described in the literature (see for example Watanabe et al, 1. Virological Methods, 1994, 48, 257). Serial dilutions of the test compounds were made in assay medium. HEp2 cells (1.0×10^4 cells/well) were infected with RSV at a low multiplicity of infection (e.g. RSV A2 at an moi of 0.01) and 100 μL added to cultures assessing antiviral activity and cells without virus added to those assessing compound cytotoxicity. Assays were incubated for approximately 5 days at 37° C. in a 5% CO2 atmosphere. The extent of CPE was determined via metabolism of the vital dye 3-(4,5-dimethylthiaxol-2-yl)-2,5-diphenyltetrazolium bromide (MTT). A 3 mg/ml stock of MTT was made in assay medium and 100 μL added to each well, taking the final MTT concentration to […]. After 2 hours incubation at 37° C., the media-MTT solution was removed and 200 μL of isopropanol was added to dissolve the vital dye crystals. Plates were shaken and the absorbance read at 540 nm. The compound concentrations that inhibited CPE by 50% (EC50) and developed cytotoxicity (CC50) were calculated using an Excel curve fitting program.
(Protection from cytopathic effect is a common read-out in antiviral testing.)
One may read the EC50 as the concentration needed to bring the measured effect to its halfway point. As for `O=C(c1csc(-c2cccnc2)n1)N1CCN2C(=O)c3ccccc3C12c1ccc(Cl)cc1` (stereo not shown) [Compound 205], the EC50 was less than 0.1 mg/L.
In the case of `O=C(c1cccnc1)N1CCN2C(=O)c3ccccc3C12c1ccc(Cl)cc1` (stereo not shown) [Compound 230], the EC50 was less than 0.1 mg/L.
Still for that read-out and setting: as for `O=C1c2ccccc2C2(c3ccc(Cl)cc3)N1CCN2C(=O)c1sccc1Cl` (stereo not shown) [Compound 328], the figure is 0.1 to 0.25 mg/L (≈ 0.233 to 0.582 µM).
Regarding `Cc1ccc(C23c4ccccc4C(=O)N2CCN3C(=O)NCc2ccc(F)cc2)cc1` (stereo not shown) [Compound 88], the EC50 is less than 0.1 mg/L.
For `Nc1ccc(C(=O)N2CCN3C(=O)c4ccccc4C23c2ccc(Cl)cc2)cn1` (stereo not shown) [Compound 319], the EC50 lay in the range of 0.25 to 1 mg/L (≈ 0.618 to 2.47 µM).
For `O=C(CCCc1c[nH]c2ccccc12)N1CCN2C(=O)c3ccccc3C12c1ccc(Cl)cc1` (stereo not shown) [Compound 228], the EC50 fell in the range of 0.25 to 1 mg/L (≈ 0.532 to 2.13 µM).
For the compound `NC(=O)COc1ccc(C23c4ccccc4C(=O)N2CCN3C(=O)c2ccc(F)cc2)cc1` (stereo not shown) [Compound 266], the half-maximal effective concentration (EC50) was 0.25 to 1 mg/L (≈ 0.561 to 2.24 µM).
Same read-out and setting: as for `CC(C)CC(=O)N1CCN2C(=O)c3ccccc3C12c1ccc(Cl)cc1` (stereo not shown) [Compound 214], the figure is 0.25 to 1 mg/L (≈ 0.678 to 2.71 µM); as for `O=C(CC1CCCC1)N1CCN2C(=O)c3ccccc3C12c1ccc(Cl)cc1` (stereo not shown) [Compound 216], 0.25 to 1 mg/L (≈ 0.633 to 2.53 µM).
On the same count and under the same terms, as for `COCCOc1ccc(C23c4ccccc4C(=O)N2CCN3C(=O)c2ccc(F)cc2)cc1` (stereo not shown) [Compound 238], the figure is 0.1 to 0.25 mg/L (≈ 0.224 to 0.56 µM); as for `O=C(c1ccc(F)cc1)N1CCN2C(=O)c3ccccc3C12c1ccc(OCC2CC2)cc1` (stereo not shown) [Compound 267], less than 0.1 mg/L.

Staying with this assay, now noted: human respiratory syncytial virus, HEp-2, 120 h; RSV A2 in HEp2 cells, CPE assay, MTT, approx. 5 days; read-out: Activity Range (RSV A2 antiviral EC50), compounds of Table 3.
For `COc1c(C(=O)N2CCN3C(=O)c4ccncc4C32c2ccc(Cl)cc2)csc1Br` (stereo not shown) [Compound 438], the EC50 fell in the range of 0.25 to 1 mg/L (≈ 0.495 to 1.98 µM).
`O=C(c1cncc(C#Cc2ccccc2)c1)N1CCN2C(=O)c3ccncc3C12c1ccc(Cl)cc1` (stereo not shown) [Compound 406]: the EC50 lay within 0.25 to 1 mg/L (≈ 0.509 to 2.04 µM).
For `CCn1nc(C)cc1C(=O)N1CCN2C(=O)c3ccncc3C21c1ccc(Cl)cc1` (stereo not shown) [Compound 422], the concentration for a half-maximal effect (EC50) lay in the range of 0.25 to 1 mg/L (≈ 0.593 to 2.37 µM).
On the same count and under the same terms, under `COc1c(C(=O)N2CCN3C(=O)c4ccncc4C32c2ccc(Cl)cc2)csc1Cl` (stereo not shown) [Compound 436] stands 0.1 to 0.25 mg/L (≈ 0.217 to 0.543 µM).
As for `CCc1ccc(C23c4c[n+]([O-])ccc4C(=O)N2CCN3C(=O)c2ccc(F)cc2)cc1` (stereo not shown) [Compound 372], the EC50 fell in the range of 0.25 to 1 mg/L (≈ 0.599 to 2.4 µM).
Turning to `CC(C)c1nnsc1C(=O)N1CCN2C(=O)c3ccncc3C21c1ccc(Cl)cc1` (stereo not shown) [Compound 464], the EC50 lay within 0.25 to 1 mg/L (≈ 0.568 to 2.27 µM).
Consider `O=C1c2ccncc2C2(c3ccc(Cl)cc3)N1CCN2C(=O)c1sccc1Br` (stereo not shown) [Compound 445], for which the EC50 is less than 0.1 mg/L.
As for `Cc1csc(C(=O)N2CCN3C(=O)c4ccncc4C32c2ccc(Cl)cc2)c1Cl` (stereo not shown) [Compound 450], the EC50 was 0.1 to 0.25 mg/L (≈ 0.225 to 0.563 µM).
Turning to `O=C(c1ccc(F)nc1)N1CCN2C(=O)c3ccncc3C12c1ccc(Br)cc1` (stereo not shown) [Compound 366], the EC50 was less than 0.1 mg/L.
Take `Cc1nc(C(=O)N2CCN3C(=O)c4ccncc4C23c2ccc(Cl)cc2)cs1` (stereo not shown) [Compound 444]: the EC50 lay within 0.1 to 0.25 mg/L (≈ 0.243 to 0.608 µM).
`O=C(c1cscn1)N1CCN2C(=O)c3ccncc3C12c1ccc(Cl)cc1` (stereo not shown) [Compound 483]: the EC50 was less than 0.1 mg/L.
